ChEMBL document CHEMBL5120859, “Optimization of 4-arylthiophene-3-carboxylic acid derivatives as inhibitors of ANO1: Lead optimization studies toward their analgesic efficacy for inflammatory pain” (Eur J Med Chem, 2022)
Active and inactive are the calls of the source. The calls are words filed in the database; no cut-off is given here.

Tests used:
Anoctamin-1 = target: T1, Anoctamin-1 (Homo sapiens, UniProt Q5XXA6); assay: Inhibition of YFP tagged ANO1 (unknown origin) expressed in FRT cells incubated for 24 hrs by fluorescence plate reader assay; type: cell-based
T1 sequence (Q5XXA6 whole entry): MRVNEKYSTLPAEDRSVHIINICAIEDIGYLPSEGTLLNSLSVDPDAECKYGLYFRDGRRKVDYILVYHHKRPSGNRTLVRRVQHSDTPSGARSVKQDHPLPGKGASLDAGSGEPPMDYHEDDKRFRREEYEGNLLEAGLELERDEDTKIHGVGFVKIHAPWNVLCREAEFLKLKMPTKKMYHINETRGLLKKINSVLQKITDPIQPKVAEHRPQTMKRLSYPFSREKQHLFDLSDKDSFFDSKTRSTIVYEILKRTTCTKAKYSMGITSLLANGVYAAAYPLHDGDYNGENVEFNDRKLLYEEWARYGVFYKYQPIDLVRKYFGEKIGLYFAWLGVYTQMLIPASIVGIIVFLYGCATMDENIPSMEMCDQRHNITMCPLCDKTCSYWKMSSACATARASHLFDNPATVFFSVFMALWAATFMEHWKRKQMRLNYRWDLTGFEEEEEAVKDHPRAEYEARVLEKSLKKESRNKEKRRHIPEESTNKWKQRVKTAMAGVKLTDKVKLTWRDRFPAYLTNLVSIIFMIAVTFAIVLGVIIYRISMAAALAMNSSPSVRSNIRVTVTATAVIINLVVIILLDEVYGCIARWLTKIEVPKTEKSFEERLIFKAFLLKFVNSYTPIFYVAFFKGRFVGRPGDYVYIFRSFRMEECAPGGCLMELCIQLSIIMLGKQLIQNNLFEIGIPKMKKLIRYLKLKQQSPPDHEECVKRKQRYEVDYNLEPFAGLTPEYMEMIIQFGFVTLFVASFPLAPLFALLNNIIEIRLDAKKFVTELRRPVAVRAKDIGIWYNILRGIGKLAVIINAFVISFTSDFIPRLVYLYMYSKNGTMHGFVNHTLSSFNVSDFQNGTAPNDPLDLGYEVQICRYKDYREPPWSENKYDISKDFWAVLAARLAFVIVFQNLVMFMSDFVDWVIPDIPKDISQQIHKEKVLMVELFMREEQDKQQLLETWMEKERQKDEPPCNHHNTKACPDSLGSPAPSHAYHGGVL

[1] = target: Voltage-dependent N-type calcium channel subunit alpha-1B (Homo sapiens) (UniProt Q00975); assay: Inhibition of Cav2.2 (unknown origin) at a holding potential +10 mV at 10 uM by whole cell patch clamp electrophysiology relative to control
[2] = target: Voltage-gated potassium channel, KQT; KCNQ2(Kv7.2)/KCNQ3(Kv7.3) (Homo sapiens) (UniProt O43526+O43525); assay: Inhibition of KCNQ2/3 (unknown origin) at a holding potential -40 mV at 30 uM by whole cell patch clamp electrophysiology relative to control
[3] = target: T2, Anoctamin-2 (Homo sapiens) (UniProt Q9NQ90); assay: Inhibition of human ANO2 expressed in HEK293 cells at 30 uM incubated for 5 mins by whole cell patch clamp electrophysiology relative to control; type: cell-based
T2 sequence (whole entry): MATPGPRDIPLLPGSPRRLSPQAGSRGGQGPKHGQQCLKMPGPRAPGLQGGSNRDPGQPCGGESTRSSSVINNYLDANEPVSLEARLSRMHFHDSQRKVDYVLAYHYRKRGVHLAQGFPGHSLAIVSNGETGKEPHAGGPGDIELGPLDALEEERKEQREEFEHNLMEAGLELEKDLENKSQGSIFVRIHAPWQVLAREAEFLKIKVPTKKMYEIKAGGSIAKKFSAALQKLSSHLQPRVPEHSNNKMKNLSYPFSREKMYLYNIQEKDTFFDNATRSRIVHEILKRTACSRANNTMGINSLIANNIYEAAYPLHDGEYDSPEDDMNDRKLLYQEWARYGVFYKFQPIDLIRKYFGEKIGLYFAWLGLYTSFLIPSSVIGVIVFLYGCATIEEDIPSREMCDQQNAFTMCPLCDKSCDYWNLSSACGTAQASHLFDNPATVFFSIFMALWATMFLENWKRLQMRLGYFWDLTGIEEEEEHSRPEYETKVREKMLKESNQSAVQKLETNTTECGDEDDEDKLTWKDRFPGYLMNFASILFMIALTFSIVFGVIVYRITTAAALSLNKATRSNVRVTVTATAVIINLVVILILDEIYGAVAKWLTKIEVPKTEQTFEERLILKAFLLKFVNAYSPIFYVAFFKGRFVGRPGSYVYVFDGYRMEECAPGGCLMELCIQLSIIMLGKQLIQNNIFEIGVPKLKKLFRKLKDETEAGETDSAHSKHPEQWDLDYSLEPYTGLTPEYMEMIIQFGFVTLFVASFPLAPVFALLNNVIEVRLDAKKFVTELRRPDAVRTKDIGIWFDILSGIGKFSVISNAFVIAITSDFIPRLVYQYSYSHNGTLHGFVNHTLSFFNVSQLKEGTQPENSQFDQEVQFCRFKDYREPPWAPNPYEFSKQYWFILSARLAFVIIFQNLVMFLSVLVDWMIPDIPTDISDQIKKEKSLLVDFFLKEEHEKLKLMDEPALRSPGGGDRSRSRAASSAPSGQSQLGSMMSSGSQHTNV

[4] = target: Voltage-gated inwardly rectifying potassium channel KCNH2 (Homo sapiens, UniProt Q12809); assay: Cardiotoxicity against human ERG expressed in HEK293 cells by patch clamp assay; type: toxicity, cell-based
[5] = target: Transient receptor potential cation channel subfamily V member 1 (Homo sapiens) (UniProt Q8NER1); assay: Inhibition of TRPV1 (unknown origin) at a holding potential +100 mV at 30 uM by whole cell patch clamp electrophysiology relative to control
[6] = target: T3, Anoctamin-1 (Homo sapiens) (UniProt Q5XXA6); assay: Inhibition of YFP tagged ANO1 (unknown origin) expressed in FRT cells at 30 uM incubated for 24 hrs by whole cell patch clamp electrophysiology relative to control; type: cell-based
T3 sequence (whole entry): T1 sequence (Q5XXA6 whole entry)

[7] = Cytotoxicity against human HEK293 cells assessed as inhibition of cell growth at 30 uM incubated for 72 hrs by CCK-8 assay; type: toxicity, cell-based
Mus musculus [8] = assay: Analgesic activity in C57BL/6 mouse model of formalin-induced allodynia assessed as reduction on foot licking pain response at 40 mg/kg,po measured after 10 mins; type: functional, organism-based
Mus musculus [9] = assay: Analgesic activity in C57BL/6 mouse model of formalin-induced allodynia assessed as reduction on foot licking pain response at 20 mg/kg,po measured after 10 mins; type: functional, organism-based
[10] = target: Transient receptor potential cation channel subfamily V member 1 (Homo sapiens) (UniProt Q8NER1); assay: Inhibition of TRPV1 (unknown origin) at a holding potential +100 mV at 10 uM by whole cell patch clamp electrophysiology relative to control

Chain of Transient receptor potential cation channel subfamily V member 1 (Homo sapiens) (Q8NER1 whole entry): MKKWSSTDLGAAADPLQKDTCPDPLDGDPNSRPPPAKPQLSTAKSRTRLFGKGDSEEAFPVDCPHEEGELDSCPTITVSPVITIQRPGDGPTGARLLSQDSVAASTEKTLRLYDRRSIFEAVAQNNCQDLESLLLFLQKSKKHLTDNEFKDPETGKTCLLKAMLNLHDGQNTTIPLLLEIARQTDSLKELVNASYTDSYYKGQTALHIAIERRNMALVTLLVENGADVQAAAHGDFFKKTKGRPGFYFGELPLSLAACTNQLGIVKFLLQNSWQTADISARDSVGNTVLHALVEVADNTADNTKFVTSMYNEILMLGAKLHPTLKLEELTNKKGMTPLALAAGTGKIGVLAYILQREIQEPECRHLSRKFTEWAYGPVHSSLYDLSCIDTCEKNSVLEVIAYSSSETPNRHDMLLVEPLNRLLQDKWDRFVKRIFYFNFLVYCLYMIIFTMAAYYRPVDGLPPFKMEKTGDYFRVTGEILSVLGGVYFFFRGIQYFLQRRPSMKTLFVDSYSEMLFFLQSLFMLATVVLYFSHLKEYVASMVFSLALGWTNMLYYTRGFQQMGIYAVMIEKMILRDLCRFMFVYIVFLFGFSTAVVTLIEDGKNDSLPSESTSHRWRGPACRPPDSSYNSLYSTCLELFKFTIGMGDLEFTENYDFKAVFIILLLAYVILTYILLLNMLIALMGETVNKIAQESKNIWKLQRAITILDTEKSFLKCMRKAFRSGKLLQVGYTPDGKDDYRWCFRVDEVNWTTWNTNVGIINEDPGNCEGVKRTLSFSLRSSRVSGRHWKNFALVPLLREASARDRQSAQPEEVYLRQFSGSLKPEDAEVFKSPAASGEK
Chain of Voltage-dependent N-type calcium channel subunit alpha-1B (Homo sapiens) (Q00975 whole entry, looked up, tested part not stated): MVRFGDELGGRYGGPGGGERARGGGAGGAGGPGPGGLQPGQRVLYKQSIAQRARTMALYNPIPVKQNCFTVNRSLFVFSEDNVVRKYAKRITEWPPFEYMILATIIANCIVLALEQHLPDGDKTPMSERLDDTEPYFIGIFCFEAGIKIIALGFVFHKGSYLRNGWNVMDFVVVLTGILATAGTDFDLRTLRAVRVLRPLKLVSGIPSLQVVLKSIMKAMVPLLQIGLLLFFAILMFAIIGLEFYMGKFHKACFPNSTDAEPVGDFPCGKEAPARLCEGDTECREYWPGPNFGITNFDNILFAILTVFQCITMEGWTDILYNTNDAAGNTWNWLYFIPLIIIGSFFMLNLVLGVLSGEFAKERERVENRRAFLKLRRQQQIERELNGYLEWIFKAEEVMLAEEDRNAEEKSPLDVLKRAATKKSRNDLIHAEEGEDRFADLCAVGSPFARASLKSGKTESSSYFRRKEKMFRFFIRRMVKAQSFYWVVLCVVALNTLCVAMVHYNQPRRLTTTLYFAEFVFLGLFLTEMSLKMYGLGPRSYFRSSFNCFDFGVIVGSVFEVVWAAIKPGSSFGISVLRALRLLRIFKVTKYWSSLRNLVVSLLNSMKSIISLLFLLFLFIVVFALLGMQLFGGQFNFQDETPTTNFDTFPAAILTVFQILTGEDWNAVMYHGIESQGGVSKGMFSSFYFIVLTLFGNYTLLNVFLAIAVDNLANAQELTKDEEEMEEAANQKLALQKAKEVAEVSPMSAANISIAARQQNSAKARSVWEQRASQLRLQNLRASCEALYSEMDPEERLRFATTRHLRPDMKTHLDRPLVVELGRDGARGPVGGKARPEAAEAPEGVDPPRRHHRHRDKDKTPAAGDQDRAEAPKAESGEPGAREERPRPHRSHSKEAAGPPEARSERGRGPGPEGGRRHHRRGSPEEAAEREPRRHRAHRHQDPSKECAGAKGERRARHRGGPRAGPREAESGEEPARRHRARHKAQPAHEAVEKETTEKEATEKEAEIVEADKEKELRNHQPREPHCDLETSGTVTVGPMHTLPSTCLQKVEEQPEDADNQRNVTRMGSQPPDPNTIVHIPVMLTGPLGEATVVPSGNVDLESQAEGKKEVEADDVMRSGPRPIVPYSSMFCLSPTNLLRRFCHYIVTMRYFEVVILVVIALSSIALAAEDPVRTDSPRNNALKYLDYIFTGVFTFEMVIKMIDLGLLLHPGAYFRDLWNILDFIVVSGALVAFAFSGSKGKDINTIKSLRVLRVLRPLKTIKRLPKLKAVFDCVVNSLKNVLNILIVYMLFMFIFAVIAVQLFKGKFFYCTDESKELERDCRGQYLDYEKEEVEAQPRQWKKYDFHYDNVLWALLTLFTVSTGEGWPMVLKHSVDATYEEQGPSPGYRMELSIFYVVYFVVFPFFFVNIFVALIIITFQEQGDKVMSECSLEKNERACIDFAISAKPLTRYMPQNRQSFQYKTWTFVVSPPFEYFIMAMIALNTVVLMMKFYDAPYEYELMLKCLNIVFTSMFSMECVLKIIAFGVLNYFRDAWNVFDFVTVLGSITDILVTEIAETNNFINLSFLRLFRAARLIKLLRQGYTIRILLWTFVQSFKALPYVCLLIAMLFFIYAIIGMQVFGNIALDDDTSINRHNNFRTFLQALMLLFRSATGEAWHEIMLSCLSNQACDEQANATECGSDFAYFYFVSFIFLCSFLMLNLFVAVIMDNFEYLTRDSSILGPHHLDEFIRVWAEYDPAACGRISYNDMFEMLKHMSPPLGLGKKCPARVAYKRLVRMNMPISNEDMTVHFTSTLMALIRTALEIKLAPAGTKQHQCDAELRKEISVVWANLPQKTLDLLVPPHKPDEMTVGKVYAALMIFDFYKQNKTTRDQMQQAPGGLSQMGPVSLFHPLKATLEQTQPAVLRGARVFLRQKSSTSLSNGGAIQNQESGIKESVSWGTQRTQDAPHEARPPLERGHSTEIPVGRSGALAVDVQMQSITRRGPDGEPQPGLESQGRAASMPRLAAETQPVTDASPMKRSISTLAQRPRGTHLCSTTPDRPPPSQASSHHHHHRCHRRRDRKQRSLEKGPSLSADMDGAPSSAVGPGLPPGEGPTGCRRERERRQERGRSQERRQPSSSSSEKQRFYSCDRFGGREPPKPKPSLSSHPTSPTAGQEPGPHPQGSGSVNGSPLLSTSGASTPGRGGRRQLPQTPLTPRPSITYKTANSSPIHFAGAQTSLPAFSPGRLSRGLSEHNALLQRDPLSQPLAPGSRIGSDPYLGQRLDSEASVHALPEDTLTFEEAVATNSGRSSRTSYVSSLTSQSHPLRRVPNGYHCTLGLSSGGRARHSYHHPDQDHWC
Chain of Voltage-gated inwardly rectifying potassium channel KCNH2 (Q12809 whole entry): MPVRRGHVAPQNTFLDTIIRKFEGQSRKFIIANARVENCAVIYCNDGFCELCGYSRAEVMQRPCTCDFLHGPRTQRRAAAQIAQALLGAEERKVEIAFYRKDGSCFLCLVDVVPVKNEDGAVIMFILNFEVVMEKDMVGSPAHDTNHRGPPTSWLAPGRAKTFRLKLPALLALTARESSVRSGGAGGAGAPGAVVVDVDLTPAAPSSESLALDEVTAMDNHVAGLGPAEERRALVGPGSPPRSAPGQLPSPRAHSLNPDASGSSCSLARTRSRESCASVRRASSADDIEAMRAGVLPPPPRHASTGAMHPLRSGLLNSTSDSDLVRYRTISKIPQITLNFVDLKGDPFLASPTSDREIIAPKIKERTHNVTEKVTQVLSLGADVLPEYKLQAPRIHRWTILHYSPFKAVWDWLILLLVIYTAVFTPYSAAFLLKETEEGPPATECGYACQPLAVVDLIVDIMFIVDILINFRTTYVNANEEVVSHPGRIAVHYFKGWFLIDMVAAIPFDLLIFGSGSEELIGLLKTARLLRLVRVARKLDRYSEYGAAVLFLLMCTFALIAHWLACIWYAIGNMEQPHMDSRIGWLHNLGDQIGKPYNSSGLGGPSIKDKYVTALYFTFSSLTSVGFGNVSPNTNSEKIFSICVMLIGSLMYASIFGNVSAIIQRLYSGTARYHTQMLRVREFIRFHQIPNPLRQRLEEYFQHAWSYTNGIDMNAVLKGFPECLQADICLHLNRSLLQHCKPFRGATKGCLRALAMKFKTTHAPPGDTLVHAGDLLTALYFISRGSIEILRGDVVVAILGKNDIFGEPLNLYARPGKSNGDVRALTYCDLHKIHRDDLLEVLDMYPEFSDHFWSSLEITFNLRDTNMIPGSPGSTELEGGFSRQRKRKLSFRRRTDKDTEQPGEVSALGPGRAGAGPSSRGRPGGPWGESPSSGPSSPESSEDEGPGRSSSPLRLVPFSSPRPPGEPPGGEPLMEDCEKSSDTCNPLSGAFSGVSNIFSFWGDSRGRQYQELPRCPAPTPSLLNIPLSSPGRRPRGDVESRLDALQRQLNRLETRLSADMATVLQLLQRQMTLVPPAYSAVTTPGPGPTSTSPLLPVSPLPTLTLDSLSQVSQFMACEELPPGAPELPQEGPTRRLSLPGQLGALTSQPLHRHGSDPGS

Molecule | IC50 (Anoctamin-1) | also measured
O=C(O)c1c(-c2ccc(Cl)cc2)csc1NC(=O)c1cccc2cccnc12 | > 300 µM | –
O=C(Nc1scc(-c2ccc(Cl)cc2)c1C(=O)O)c1cc(C(F)(F)F)ccc1Cl | 36.9 µM | –
COc1ccc(Cl)cc1C(=O)Nc1scc(-c2ccc(Cl)cc2)c1C(=O)O | > 100 µM | –
O=C(Nc1scc(-c2ccc(Cl)cc2)c1C(=O)O)c1c(Cl)cccc1Cl | 12.1 µM | –
O=C(Nc1scc(-c2ccc(Cl)cc2)c1C(=O)O)c1cc(Cl)ccc1I | 12 µM | –
CC(=O)Oc1ccccc1C(=O)Nc1ncc([N+](=O)[O-])s1 [NITAZOXANIDE] | 0.424 µM | –
CADMIUM DICHLORIDE | – | inhibition [1]: 91.4%
O=C(Nc1scc(-c2ccc(Cl)cc2)c1C(=O)O)c1ccccc1OC(F)(F)F | 5.66 µM | –
O=C(Nc1scc(-c2ccc(Cl)cc2)c1C(=O)O)c1cc(I)ccc1F | 4.49 µM | –
O=C(Nc1ccc([N+](=O)[O-])cc1Cl)c1cc(Cl)ccc1O [NICLOSAMIDE] | 0.028 µM | –
O=C(Nc1scc(-c2ccc(Cl)cc2)c1C(=O)O)c1cccc(Cl)c1Cl | 1.94 µM | –
CCOC(=O)Nc1ccc(NCc2ccc(F)cc2)cc1N | – | inhibition [2]: 100%
O=C(Nc1scc(-c2ccc(Cl)cc2)c1C(=O)O)c1cccc2c1OCCO2 | > 100 µM | –
O=C(Nc1scc(-c2ccc(Cl)cc2)c1C(=O)O)c1cc(Cl)ccc1Br | 0.029 µM | inhibition [3]: 92.6%; IC50 [4]: > 30 µM; inhibition [5]: 26.4%; inhibition [6]: 32.1%; inhibition at 72 h, 30 µM [7]: < 10%
O=C(O)c1c(-c2ccc(Cl)cc2)csc1NC(=O)c1cccc2ccccc12 | 0.79 µM | –
O=C(Nc1scc(-c2ccc(Cl)cc2)c1C(=O)O)c1cc(Cl)ccc1C(F)(F)F | 1.59 µM | –
O=C(Nc1scc(-c2ccc(Cl)cc2)c1C(=O)O)c1cc(F)ccc1I | 2.21 µM | –
O=C(O)c1c(-c2ccc(Cl)cc2)csc1NC(=O)c1cccc2ncccc12 | 6.99 µM | –
O=C(Nc1scc(-c2ccc(Cl)cc2)c1C(=O)O)c1cccc2c1OCO2 | > 100 µM | –
O=C(Nc1scc(-c2ccc(Cl)cc2)c1C(=O)O)c1ccc(Cl)cc1Cl | 1.24 µM | –

Molecule | IC50 (Anoctamin-1) | also measured
CC(C)(C)C1CCc2c(sc(NC(=O)c3ccco3)c2C(=O)O)C1 (configuration not stated) | – | inhibition [3]: 71.2%; Activity (Mus musculus [8]): Active
O=C(Nc1scc(-c2ccc(Cl)cc2)c1C(=O)O)c1cnccn1 | 4.01 µM | –
O=C(Nc1scc(-c2ccc(Cl)cc2)c1C(=O)O)c1cc(Cl)ccc1F | 8.77 µM | –
Cc1ccsc1C(=O)Nc1scc(-c2ccc(Cl)cc2)c1C(=O)O | 3.12 µM | –
O=C(Nc1scc(-c2ccc(Cl)cc2)c1C(=O)O)c1cc(I)ccc1Cl | 78.9 µM | –
O=C(Nc1scc(-c2ccc(Cl)cc2)c1C(=O)O)c1cc(F)ccc1Br | 0.96 µM | –
CC(C)C[C@H](CN)CC(=O)O | – | Activity (Mus musculus [9]): Active
COc1cc(CNC(=O)CCCC/C=C/C(C)C)ccc1O | – | inhibition [10]: 96.7%
O=C(Nc1scc(-c2ccc(Cl)cc2)c1C(=O)O)c1cccnc1 | 70.6 µM | –
Cc1ccc(Cl)c(C(=O)Nc2scc(-c3ccc(Cl)cc3)c2C(=O)O)c1 | 1.79 µM | –
O=C(Nc1scc(-c2ccc(Cl)cc2)c1C(=O)O)c1cc(F)ccc1Cl | 6.55 µM | –
COc1ccccc1/N=N/C(=O)COc1ccc(Cl)cc1C | 1.07 µM | inhibition [3]: 12.6%; inhibition [6]: 42.7%
COc1ccc(Cl)c(C(=O)Nc2scc(-c3ccc(Cl)cc3)c2C(=O)O)c1 | 35.9 µM | –
Cc1ccc(Cl)cc1C(=O)Nc1scc(-c2ccc(Cl)cc2)c1C(=O)O | > 100 µM | –
CC(C)Cc1ccc(C(C)C(=O)O)cc1 (configuration not stated) | – | Activity (Mus musculus [8]): Active
O=C(Nc1scc(-c2ccc(Cl)cc2)c1C(=O)O)c1ccncc1 | 6.27 µM | –
O=C(Nc1scc(-c2ccc(Cl)cc2)c1C(=O)O)c1cc(Br)ccc1Cl | 83.5 µM | –
O=C(Nc1scc(-c2ccc(Cl)cc2)c1C(=O)O)c1cc(Br)ccc1F | 59.8 µM | –
O=C(Nc1scc(-c2ccc(Cl)cc2)c1C(=O)O)c1cc(Cl)ccc1Cl | 0.27 µM | –
